Patent US20260356804A1, “SODIUM CHANNEL BLOCKING COMPOUNDS, DERIVATIVES THEREOF, AND METHODS OF THEIR USE” (LATIGO BIOTHERAPEUTICS, INC., priority 2022, published 2026)
Read-outs that look alike come from different tables or passages of the source.

Molecular target: T1, human Nav1.8/b3 (Homo sapiens, UniProt Q9Y5Y9)
T1 construct: expressed in transfected cells; host or cells: CHO
Assay: Compound Profiling Human NaV1.8/β3 Cell Line—SyncroPatch384PE Assay (automated patch clamp, stably transfected CHO cells)
Type: cell-based
Conditions: Nav1.8/b3 CHO cells

[1] = P1 (IC50, resting state block), P1 measurement, resting state block, holding potential −120 mV, third set of compounds
[2] = P2 (IC50, inactivated state block), P2 measurement, inactivated state block, inactivation step −35 mV 10 sec, third set of compounds
[3] = P1 (IC50, resting state block), P1 measurement, resting state block, holding potential −120 mV, first set of compounds
[4] = P2 (IC50, inactivated state block), P2 measurement, inactivated state block, inactivation step −35 mV 10 sec, first set of compounds
[5] = P1 measurement, resting state block, holding potential −120 mV, third set of compounds, read-out: P1 (IC50, resting state block)
[6] = P2 measurement, inactivated state block, inactivation step −35 mV 10 sec, third set of compounds, read-out: P2 (IC50, inactivated state block)

T1 sequence (Q9Y5Y9 whole entry): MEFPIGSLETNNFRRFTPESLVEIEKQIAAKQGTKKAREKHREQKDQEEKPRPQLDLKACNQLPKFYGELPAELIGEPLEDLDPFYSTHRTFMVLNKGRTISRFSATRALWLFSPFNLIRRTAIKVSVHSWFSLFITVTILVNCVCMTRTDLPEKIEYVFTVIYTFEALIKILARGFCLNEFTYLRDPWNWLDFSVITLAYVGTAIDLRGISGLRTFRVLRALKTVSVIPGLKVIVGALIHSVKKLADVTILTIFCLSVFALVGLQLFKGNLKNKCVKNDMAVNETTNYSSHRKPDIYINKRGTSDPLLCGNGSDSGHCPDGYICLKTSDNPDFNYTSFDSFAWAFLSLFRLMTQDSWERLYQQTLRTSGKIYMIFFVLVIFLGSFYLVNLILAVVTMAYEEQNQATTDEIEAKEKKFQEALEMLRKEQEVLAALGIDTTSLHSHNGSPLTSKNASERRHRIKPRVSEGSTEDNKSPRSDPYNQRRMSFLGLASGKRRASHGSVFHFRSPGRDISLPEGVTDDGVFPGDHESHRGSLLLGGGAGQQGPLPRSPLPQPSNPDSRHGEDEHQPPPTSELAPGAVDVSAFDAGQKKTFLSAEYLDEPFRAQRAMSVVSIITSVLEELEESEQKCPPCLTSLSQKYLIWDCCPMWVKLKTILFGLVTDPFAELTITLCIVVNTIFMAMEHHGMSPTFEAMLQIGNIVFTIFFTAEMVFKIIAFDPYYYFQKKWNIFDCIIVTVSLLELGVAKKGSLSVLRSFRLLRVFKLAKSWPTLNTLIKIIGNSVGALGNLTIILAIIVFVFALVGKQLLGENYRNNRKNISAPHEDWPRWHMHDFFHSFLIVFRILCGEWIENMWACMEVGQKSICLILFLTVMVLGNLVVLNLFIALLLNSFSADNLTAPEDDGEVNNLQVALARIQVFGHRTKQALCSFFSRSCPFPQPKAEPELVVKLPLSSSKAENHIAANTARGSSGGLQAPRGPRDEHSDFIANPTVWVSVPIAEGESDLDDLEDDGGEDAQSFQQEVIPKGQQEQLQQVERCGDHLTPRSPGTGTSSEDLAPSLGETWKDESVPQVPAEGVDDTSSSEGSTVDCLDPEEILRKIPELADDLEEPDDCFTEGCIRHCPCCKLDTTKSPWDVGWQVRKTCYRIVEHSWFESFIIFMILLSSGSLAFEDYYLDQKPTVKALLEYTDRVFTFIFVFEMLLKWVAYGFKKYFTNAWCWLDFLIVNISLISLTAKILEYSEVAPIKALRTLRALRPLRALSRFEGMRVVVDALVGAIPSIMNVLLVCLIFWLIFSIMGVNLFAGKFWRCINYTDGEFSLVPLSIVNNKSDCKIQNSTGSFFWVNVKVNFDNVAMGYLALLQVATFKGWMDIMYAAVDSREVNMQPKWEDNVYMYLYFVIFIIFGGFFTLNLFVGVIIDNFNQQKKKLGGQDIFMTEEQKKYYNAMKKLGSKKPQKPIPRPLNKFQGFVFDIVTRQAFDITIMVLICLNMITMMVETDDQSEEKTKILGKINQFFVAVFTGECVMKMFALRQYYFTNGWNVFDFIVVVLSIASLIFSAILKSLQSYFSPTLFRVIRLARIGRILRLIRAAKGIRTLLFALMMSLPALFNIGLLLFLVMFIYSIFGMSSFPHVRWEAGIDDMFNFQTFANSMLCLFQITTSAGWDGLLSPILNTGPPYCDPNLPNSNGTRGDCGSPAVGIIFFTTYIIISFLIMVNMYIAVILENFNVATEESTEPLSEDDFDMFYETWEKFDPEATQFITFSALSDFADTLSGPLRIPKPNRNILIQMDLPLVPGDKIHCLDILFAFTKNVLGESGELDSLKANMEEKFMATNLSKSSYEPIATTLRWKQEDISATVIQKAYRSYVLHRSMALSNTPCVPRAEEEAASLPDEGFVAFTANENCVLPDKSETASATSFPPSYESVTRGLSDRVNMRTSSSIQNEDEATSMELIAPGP
T1 sequence (Q9NY72 23-215 partner): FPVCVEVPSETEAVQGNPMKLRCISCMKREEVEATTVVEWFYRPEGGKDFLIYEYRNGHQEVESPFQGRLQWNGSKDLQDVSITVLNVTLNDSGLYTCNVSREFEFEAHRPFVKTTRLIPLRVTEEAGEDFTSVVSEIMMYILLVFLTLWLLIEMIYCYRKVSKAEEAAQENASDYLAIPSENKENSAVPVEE

SMILES	IC50 [3] [nM]	IC50 [4] [nM]	other results
Cc1nc(F)ccc1Oc1nc(C(F)(F)F)c(Cl)c(C)c1C(=O)Nc1cccc([S@](C)(=N)=O)c1 [Example 35C, (R)-5-chloro-2-((6-fluoro-2-methylpyridin-3-yl)oxy)-4-methyl-N-(3-(S-methylsulfonimidoyl)phenyl)-6-(trifluoromethyl)nicotinamide]			IC50 [1]: < 5 nM; IC50 [2]: < 5 nM
Cc1nc(F)ccc1Oc1cc(C(F)(F)F)cc(F)c1C(=O)Nc1ccc(C(N)=O)cc1 [Example 36A]	5 to 50	5 to 50	
Cc1nc(F)ccc1Oc1c(C(F)(F)F)ncc(F)c1C(=O)Nc1cccc([S@](C)(=N)=O)c1 [Example 36C, (R)-5-fluoro-3-((6-fluoro-2-methylpyridin-3-yl)oxy)-N-(3-(S-methylsulfonimidoyl)phenyl)-2-(trifluoromethyl)isonicotinamide]			IC50 [1]: > 200 nM; IC50 [2]: > 200 nM
Cc1nc(F)ccc1Oc1cc(C(F)(F)F)c(Cl)c(F)c1C(=O)Nc1ccc(C(N)=O)cc1 [Example 37A]	< 5	< 5	
Cc1nc(F)ccc1Oc1c(C2CC2)ncc(F)c1C(=O)Nc1cccc([S@](C)(=N)=O)c1 [Example 37C, (R)-2-cyclopropyl-5-fluoro-3-((6-fluoro-2-methylpyridin-3-yl)oxy)-N-(3-(S-methylsulfonimidoyl)phenyl)isonicotinamide]			IC50 [5]: > 200 nM; IC50 [6]: > 200 nM
Cc1nc(F)ccc1Oc1cc(C2CC2)c(C(F)(F)F)c(C)c1C(=O)Nc1ccnc([S@@](C)(=N)=O)c1 [Example 38A]	< 5	< 5	
COc1cc(C#N)ccc1Oc1cc(C(F)(F)F)nnc1C(=O)Nc1cccc(S(C)(=O)=O)c1 [Example 38C, 4-(4-cyano-2-methoxyphenoxy)-N-(3-(methylsulfonyl)phenyl)-6-(trifluoromethyl)pyridazine-3-carboxamide]			IC50 [1]: > 200 nM; IC50 [2]: 100 to 200 nM
Cc1nc(F)ccc1Oc1cc(C2CC2)c(C(F)(F)F)c(C)c1C(=O)Nc1ccnc([S@](C)(=N)=O)c1 [Example 39A]	< 5	< 5	
Cc1cc(C#N)ccc1Oc1cc(C(F)(F)F)nnc1C(=O)Nc1cccc(S(C)(=N)=O)c1 (stereo not drawn) [Example 39C, 4-(4-cyano-2-methylphenoxy)-N-(3-(S-methylsulfonimidoyl)phenyl)-6-(trifluoromethyl)pyridazine-3-carboxamide]			IC50 [1]: > 200 nM; IC50 [2]: > 200 nM
Cc1nc(F)ccc1Oc1cc(C(F)(F)F)cc(F)c1C(=O)Nc1ccnc([S@](C)(=N)=O)c1 [Example 40A]	5 to 50	5 to 50	
Cc1nc(F)ccc1Oc1ncc(C(F)(F)F)c(C)c1C(=O)Nc1cccc(S(C)(=N)=N)c1 [Example 40C, ((3-(2-((6-fluoro-2-methylpyridin-3-yl)oxy)-4-methyl-5-(trifluoromethyl)nicotinamido)phenyl)(methyl)-l6-sulfanediylidene)diamine]			IC50 [1]: < 5 nM; IC50 [2]: < 5 nM
Cc1nc(F)ccc1Oc1cc(C(F)(F)F)c(Cl)c(F)c1C(=O)Nc1ccnc([S@](C)(=N)=O)c1 [Example 41A]	< 5	< 5	
Cc1nc(F)ccc1Oc1cc(C2CC2)c(C(F)(F)F)c(C)c1C(=O)Nc1cccc([S@@](C)(=N)=O)c1 [Example 42A]	< 5	< 5	
Cc1nc(F)ccc1Oc1cc(C(F)(F)F)c(Cl)c(F)c1C(=O)Nc1cccc([S@](C)(=N)=O)c1 [Example 43A]	< 5	< 5	
Cc1nc(F)ccc1Oc1ncc(C(F)(F)F)c(C)c1C(=O)Nc1cccc([S@@](C)(=O)=NCCN)c1 [Example 43C, (R)—N-(3-(N-(2-aminoethyl)-S-methylsulfonimidoyl)phenyl)-2-((6-fluoro-2-methylpyridin-3-yl)oxy)-4-methyl-5-(trifluoromethyl)nicotinamide]			IC50 [1]: < 5 nM; IC50 [2]: < 5 nM
C[S@@](=N)(=O)c1cc(NC(=O)c2c(F)cc(C(F)(F)F)cc2Oc2ccc(OC(F)(F)F)cc2)ccn1 [Example 44A]	< 5	< 5	
Cc1nc(F)ccc1Oc1cnc(C(F)(F)F)c(C)c1C(=O)Nc1cccc([S@](C)(=N)=O)c1 [Example 44C, (R)-5-((6-fluoro-2-methylpyridin-3-yl)oxy)-3-methyl-N-(3-(S-methylsulfonimidoyl)phenyl)-2-(trifluoromethyl)isonicotinamide]			IC50 [5]: 5 to 50 nM; IC50 [6]: 5 to 50 nM
C[S@@](=N)(=O)c1cc(NC(=O)c2c(Oc3ccc(OC(F)(F)F)cc3)cc(C(F)(F)F)c(Cl)c2F)ccn1 [Example 45A]	< 5	< 5	
Cc1nc(F)ccc1Oc1cnc(C(F)(F)F)c(Cl)c1C(=O)Nc1cccc([S@](C)(=N)=O)c1 [Example 45C, (R)-3-chloro-5-((6-fluoro-2-methylpyridin-3-yl)oxy)-N-(3-(S-methylsulfonimidoyl)phenyl)-2-(trifluoromethyl)isonicotinamide]			IC50 [5]: < 5 nM; IC50 [6]: < 5 nM
C[S@@](=N)(=O)c1cccc(NC(=O)c2c(Oc3ccc(OC(F)(F)F)cc3)cc(C(F)(F)F)c(Cl)c2Oc2ccc(OC(F)(F)F)cc2)c1 [Example 46A]	100 to 200	100 to 200	
Cc1nc(F)ccc1Oc1cc(C(F)(F)F)c(Cl)c(F)c1C(=O)NC12CC(C(N)=O)(C1)C2 [Example 47A]	> 200	> 200	
Cc1nc(F)ccc1Oc1cc(C(F)(F)F)c(Cl)cc1C(=O)Nc1ccc([S@@](C)(=N)=O)cc1 [Example 48A]	50 to 100	50 to 100	
Cc1nc(F)ccc1Oc1ncc(C(F)F)c(C)c1C(=O)Nc1ccnc(S(C)(=N)=O)c1 (stereo not drawn) [Example 48C, 5-(difluoromethyl)-2-((6-fluoro-2-methylpyridin-3-yl)oxy)-4-methyl-N-(2-(S-methylsulfonimidoyl)pyridin-4-yl)nicotinamide]			IC50 [1]: > 200 nM; IC50 [2]: > 200 nM

SMILES	IC50 [3] [nM]	IC50 [4] [nM]	other results
Cc1nc(F)ccc1Oc1cc(C(F)(F)F)c(Cl)cc1C(=O)Nc1ccc([S@](C)(=N)=O)cc1 [Example 49A]	50 to 100	50 to 100	
C[S@@](=N)(=O)c1cccc(NC(=O)c2c(Oc3ccc(OC(F)(F)F)cc3)cc(C(F)(F)F)c(Cl)c2F)c1 [Example 50A]	< 5	< 5	
Cc1nc(F)ccc1Oc1cc(C2CC2)c(C(F)(F)F)cc1C(=O)Nc1ccc(F)c([S@@](C)(=N)=O)c1 [Example 51A]	< 5	< 5	
Cc1nc(F)ccc1Oc1cc(C2CC2)c(C(F)(F)F)cc1C(=O)Nc1ccc(F)c([S@](C)(=N)=O)c1 [Example 52A]	< 5	< 5	
Cc1nc(F)ccc1Oc1cc(C(F)(F)F)c(Cl)c(C)c1C(=O)NC12CC(C(N)=O)(C1)C2 [Example 53A]	> 200	> 200	
Cc1nc(F)ccc1Oc1cc(C(F)(F)F)c(Cl)cc1C(=O)Nc1ccc(F)c(S(C)(=O)=O)c1 [Example 54A]	< 5	< 5	
Cc1nc(F)ccc1Oc1cc(C(F)(F)F)c(Cl)cc1C(=O)Nc1ccc(F)c([S@+](C)[O-])c1 [Example 55A]	< 5	< 5	
Cc1nc(F)ccc1Oc1cc(C(F)(F)F)c(Cl)cc1C(=O)Nc1ccc(F)c([S@@+](C)[O-])c1 [Example 56A]	< 5	< 5	
Cc1nc(F)ccc1Oc1cc(C2CC2)c(C(F)(F)F)cc1C(=O)Nc1ccnc([S@@](C)(=N)=O)c1 [Example 57A]	< 5	5 to 50	
Cc1nc(F)ccc1Oc1cc(C2CC2)c(C(F)(F)F)cc1C(=O)Nc1ccnc([S@](C)(=N)=O)c1 [Example 58A]	< 5	< 5	
Cc1nc(F)ccc1Oc1cc(C2CC2)c(C(F)(F)F)cc1C(=O)Nc1cccc([S@@](C)(=N)=O)c1 [Example 59A]	< 5	< 5	
Cc1nc(F)ccc1Oc1cc(C(F)(F)F)c(Cl)c(C)c1C(=O)Nc1ccnc([S@@](C)(=N)=O)c1 [Example 60A]	< 5	< 5	
Cc1nc(F)ccc1Oc1cc(C(F)(F)F)c(Cl)c(C)c1C(=O)Nc1cccc(C(N)=O)c1 [Example 61A]	< 5	< 5	
Cc1nc(F)ccc1Oc1cc(C(F)(F)F)c(Cl)c(C)c1C(=O)Nc1ccnc(C(N)=O)c1 [Example 62A]	< 5	< 5	
Cc1nc(F)ccc1Oc1cc(C(F)(F)F)c(Cl)cc1C(=O)NC12CC(C(N)=O)(C1)C2 [Example 63A]	> 200	> 200	
Cc1nc(F)ccc1Oc1cc(C(F)(F)F)c(Cl)cc1C(=O)Nc1ccc(C(N)=O)nc1 [Example 64A]	5 to 50	5 to 50	
Cc1nc(F)ccc1Oc1cc(C(F)(F)F)c(Cl)c(C)c1C(=O)Nc1ccnc([S@](C)(=N)=O)c1 [Example 65A]	< 5	< 5	
Cc1nc(F)ccc1Oc1cc(C(F)(F)F)c(Cl)c(C)c1C(=O)Nc1cccc([S@@](C)(=N)=O)c1 [Example 66A]	< 5	< 5	
Cc1nc(F)ccc1Oc1cc(C2CC2)c(C(F)(F)F)cc1C(=O)Nc1cccc([S@](C)(=N)=O)c1 [Example 67A]	< 5	< 5	
Cc1nc(F)ccc1Oc1cc(C(F)(F)F)c(Cl)cc1C(=O)Nc1ccc(C(N)=O)cc1 [Example 68A]	5 to 50	< 5	
Cc1nc(F)ccc1Oc1cc(C(F)(F)F)c(Cl)cc1C(=O)Nc1ccc(F)c([S+](C)[O-])c1 (stereo not drawn) [Example 69A]	< 5	< 5	
Cc1nc(F)ccc1Oc1cc(C(F)(F)F)c(Cl)cc1C(=O)Nc1ccc(F)c([S@@](C)(=N)=O)c1 [Example 70A]	< 5	< 5	
